Counter-ions that a name gives are not always drawn.

By inhibition is commonly meant the relative decrease from the control value, in per cent.

The experiment relates to T1, primary mouse cortical neurons.
T1 construct: primary cortical neurons, DIV 10
Description: cells. Conditions: Cortical neurone, 20 h, read-out: % inhibition, inhibition of NMDA-induced cell death (protection score), 30 min pre-treatment. Details: Protection from NMDA-induced (30 uM, 10 min) neuronal death; Hoechst nuclear morphology by automated microscopy. Put shortly:
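On DIV 10, primary mouse cortical neurons were given compound at 10 μM for 30 min at 37 °C, then 30 μM NMDA for 10 min, washed, and kept 20 h with compound. Dead cells were scored by nuclear morphology, and % protection was derived from survival relative to vehicle + NMDA and untreated controls.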

Regarding `CC(=O)Oc1cc2c(s1)CCN(C(C(=O)C1CC1)c1ccccc1F)C2` (stereo not shown) [Prasugrel (Effient)], the inhibition at 10 µM was -7.75%.
As for `CC(=O)SCC(Cc1ccccc1)C(=O)NCC(=O)OCc1ccccc1` (stereo not shown) [Racecadotril (Acetorphan)], the inhibition at 10 µM is -7.37%.
With `COC(=O)[C@@H]1[C@H]2C[C@H]3c4[nH]c5ccccc5c4CCN3C[C@@H]2CC[C@@H]1O` [Yohimbine hydrochloride (Antagonil)], the inhibition at 10 µM amounted to 7.7%.
As for `CCN(CC)C(=S)SSC(=S)N(CC)CC` [Disulfiram (Antabuse)], the inhibition at 10 µM is -13.6%.
Turning to `CNS(=O)(=O)Cc1ccc2[nH]cc(CCN(C)C)c2c1` [Sumatriptan succinate], the inhibition at 10 µM turned out to be 8.05%.
With `CCCN[C@H]1CCc2nc(N)sc2C1` [Pramipexole dihydrochloride monohydrate] the figure was -0.655%.
As to `CNC[C@H](O)c1ccc(O)c(O)c1` [Epinephrine bitartrate (Adrenalinium)], the inhibition at 10 µM was -0.43%.
For `CC(C)c1nc(CN(C)C(=O)N[C@H](C(=O)N[C@@H](Cc2ccccc2)C[C@H](O)[C@H](Cc2ccccc2)NC(=O)OCc2cncs2)C(C)C)cs1` [Ritonavir] the value was -1.84%.
On to `CCC1(c2ccccc2)C(=O)NCNC1=O` [Primidone (Mysoline)], for which the inhibition at 10 µM was 27.9%.
As for `CCCCN1CCCCC1C(=O)Nc1c(C)cccc1C` (stereo not shown) [Bupivacaine hydrochloride (Marcain)], the inhibition at 10 µM was -1.92%.
For the compound `COC(=O)[C@@H]1CC2=CC(=O)CC[C@]2(C)[C@@]23O[C@@H]2C[C@@]2(C)[C@@H](CC[C@@]24CCC(=O)O4)[C@H]13` [Eplerenone], the inhibition at 10 µM was found to be 6.59%.
Take `OCc1ccc(O[C@@H]2O[C@H](CO)[C@@H](O)[C@H](O)[C@H]2O)cc1` [Gastrodin(Gastrodine)]: the inhibition at 10 µM was found to be 3.84%.
With `C=C[C@H]1CN2CC[C@H]1C[C@H]2[C@H](O)c1ccnc2ccccc12` [Cinchonidine] the figure was -3.04%.
As to `C[C@@H](O)[C@H]1C(=O)N2C(C(=O)O)=C(S[C@@H]3CN[C@H](CNS(N)(=O)=O)C3)[C@H](C)[C@H]12` [Doripenem Hydrate], the inhibition at 10 µM was -0.0213%.
`Cn1c(CNc2ccc(C(=N)N)cc2)nc2cc(C(=O)N(CCC(=O)O)c3ccccn3)ccc21` [BIBR 953 (Dabigatran etexilate, Pradaxa)]: the inhibition at 10 µM is -1.4%.
With `C[C@H](Cn1cnc2c(N)ncnc21)OCP(=O)(O)O` [Tenofovir (Viread)], the inhibition at 10 µM worked out at 8.23%.
With `CN(C)Cc1c[nH]c2ccccc12` [Gramine] the figure was -3.83%; with `CN(C)CCCN1c2ccccc2Sc2ccc(Cl)cc21` [Chlorpromazine (Sonazine)], -4.78%.
As for `C[C@H]1C[C@@H]2[C@H]([C@@H](O)C[C@@]3(C)[C@H]2CC[C@]3(O)C(=O)CO)[C@@]2(C)C=CC(=O)C=C12` [Methylprednisolone], the inhibition at 10 µM was found to be 7.52%.
Consider `C[N+](C)(C)C[C@H](O)CC(=O)[O-]` [L-carnitine (Levocarnitine)], for which the inhibition at 10 µM came to 3.2%.
Regarding `O=C(OC1C[C@H]2CC[C@@H](C1)[N+]21CCCC1)C(O)(c1ccccc1)c1ccccc1` (stereo partly shown) [Trospium chloride (Sanctura)], the inhibition at 10 µM is 7.49%.
As for `O=C(CCCN1CCC(O)(c2ccc(Cl)cc2)CC1)c1ccc(F)cc1` [Haloperidol (Haldol)], the inhibition at 10 µM stood at 65%.
Consider `COc1ccc(CCC(=O)c2c(O)cc(O[C@@H]3O[C@H](CO)[C@@H](O)[C@H](O)[C@H]3O[C@@H]3O[C@@H](C)[C@H](O)[C@@H](O)[C@H]3O)cc2O)cc1O` [Neohesperidin dihydrochalcone (Nhdc)], for which the inhibition at 10 µM is -3.39%.
For `CCOC(=O)C1=C(C)NC(C)=C(C(=O)OC)C1c1cccc(Cl)c1Cl` (stereo not shown) [Felodipine (Plendil)], the inhibition at 10 µM was -1.75%.
In the case of `COc1c(C)c2c(c(O)c1C/C=C(\C)CCC(=O)OCCN1CCOCC1)C(=O)OC2` [Mycophenolate mofetil (CellCept)], the inhibition at 10 µM turned out to be 4.41%.

Values taken from publication PMC7489219 (Molecular Brain, 2020).
